Publication PMC7531004, “Discovery of gramicidin A analogues with altered activities by multidimensional screening of a one-bead-one-compound library” (Nature Communications, 2020)
Where a SMILES comes first, the peptide text is derived from it. [ ]: non-standard residue; d: D form. The star is where a group is joined. NHCH2CH2OH = OCCN*; For = O=C*

Columns and labels:
[1] = tested on: Streptococcus pyogenes SSI-9; assay: Antibacterial activity assay of bead-derived peptides (three concentrations); assay type: cell-based; set-up: key: +++: inhibition by the 640-fold diluted peptide solution; ++: inhibition by the 160-fold diluted solution; +: inhibition by the 40-fold diluted solution; -: no inhibition; conditions: S. pyogenes, bead-derived peptide solution, three concentrations
In short: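 Three stock dilutions per peptide (none, 4-fold, 16-fold in DMSO) are screened in 96-well format. The medium is blood-supplemented cation-adjusted MHB, inoculated with 2 × 10^5 CFU S. pyogenes SSI-9. Growth is read as cell precipitation at 18 h, 37 °C.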

[2] = H+/Na+ transport assay of bead-derived peptides (one-point); assay type: biochemical; set-up: key: relative activity; mean of two control wells = 1.00; conditions: bead-derived peptide solution, EYPC/EYPG LUVs;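 note: relative to parent gramicidin A activity set to 1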
In short: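 H+/Na+ transport is monitored through pyranine fluorescence in freshly extruded LUVs after a 30-min room-temperature vortex with each library peptide at a single concentration. Signals are normalized to detergent (Triton X-100) and untreated controls.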

[3] = tested on: P388 mouse leukemia cells; conditions: 92 h
In short: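 First, library peptide stocks are diluted 250-fold in RPMI1640 with 10% heat-inactivated FBS. Next, they are mixed with P388 cells to give 1 × 10^4 cells/mL and incubated 92 h at 37 °C, 5% CO2. Finally, viability (%) is scored by WST-1 absorbance at 415 nm.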

SMILES	antibacterial activity [1]	H+/Na+ transport activity normalized against the value of 1 (1.00) [2]	cell viability/% [3] [%]
CC(C)C[C@@H](NC(=O)[C@H](C)NC(=O)CNC(=O)[C@@H](NC=O)C(C)C)C(=O)N[C@@H](C)C(=O)N[C@@H](C(=O)N[C@H](C(=O)N[C@H](CC(C)C)C(=O)N[C@@H](Cc1c[nH]c2ccccc12)C(=O)N[C@@H](C(=O)N[C@@H](Cc1c[nH]c2ccccc12)C(=O)N[C@H](CC(C)C)C(=O)N[C@@H](Cc1c[nH]c2ccccc12)C(=O)N[C@@H](C(=O)N[C@@H](Cc1c[nH]c2ccccc12)C(=O)NCCO)[C@H](C)O)C(C)C)C(C)C)C(C)C [compound 5058] (For-VGA[dL]A[dV]V[dL]W[dV]W[dL]W[dT]W-NHCH2CH2OH)	-	1.02	100.0
CNC(=O)C[C@@H](NC(=O)[C@H](Cc1c[nH]c2ccccc12)NC(=O)[C@H](NC(=O)[C@@H](NC(=O)[C@@H](CC(C)C)NC(=O)[C@H](C)NC(=O)[C@@H](CC(C)C)NC(=O)[C@H](C)NC(=O)CNC(=O)[C@@H](NC=O)C(C)C)C(C)C)C(C)C)C(=O)N[C@@H](Cc1c[nH]c2ccccc12)C(=O)N[C@H](CC(C)C)C(=O)N[C@@H](Cc1c[nH]c2ccccc12)C(=O)N[C@@H](C(=O)N[C@@H](Cc1c[nH]c2ccccc12)C(=O)NCCO)C(C)C [compound 5091] (For-VGA[dL]A[dL]V[dV]W[dD](NHMe)W[dL]W[dV]W-NHCH2CH2OH)	+	1.05	100.0
CC(C)C[C@@H](NC(=O)[C@H](Cc1c[nH]c2ccccc12)NC(=O)[C@H](NC(=O)[C@H](Cc1c[nH]c2ccccc12)NC(=O)[C@H](NC(=O)[C@H](Cc1c[nH]c2ccccc12)NC(=O)[C@H](NC(=O)[C@@H](NC(=O)[C@H](NC(=O)[C@H](C)NC(=O)[C@H](NC(=O)[C@H](C)NC(=O)CNC(=O)[C@@H](NC=O)C(C)C)C(C)C)[C@H](C)O)C(C)C)C(C)C)C(C)C)C(C)C)C(=O)N[C@@H](Cc1c[nH]c2ccccc12)C(=O)NCCO [compound 5164] (For-VGA[dV]A[dT]V[dV]W[dV]W[dV]W[dL]W-NHCH2CH2OH)	-	1.19	100.0
CC(C)C[C@@H](NC(=O)[C@H](C)NC(=O)CNC(=O)[C@@H](NC=O)C(C)C)C(=O)N[C@@H](C)C(=O)N[C@@H](C(=O)N[C@H](C(=O)N[C@@H](C(=O)N[C@@H](Cc1c[nH]c2ccccc12)C(=O)N[C@@H](C(=O)N[C@@H](Cc1c[nH]c2ccccc12)C(=O)N[C@H](CC(C)C)C(=O)N[C@@H](Cc1c[nH]c2ccccc12)C(=O)N[C@@H](C(=O)N[C@@H](Cc1c[nH]c2ccccc12)C(=O)NCCO)C(C)C)C(C)C)[C@H](C)O)C(C)C)C(C)C [compound 5167] (For-VGA[dL]A[dV]V[dT]W[dV]W[dL]W[dV]W-NHCH2CH2OH)	-	1.33	100.0
CC(C)C[C@@H](NC(=O)[C@H](Cc1c[nH]c2ccccc12)NC(=O)[C@H](NC(=O)[C@@H](NC(=O)[C@H](NC(=O)[C@H](C)NC(=O)[C@H](NC(=O)[C@H](C)NC(=O)CNC(=O)[C@@H](NC=O)C(C)C)C(C)C)C(C)C)C(C)C)C(C)C)C(=O)N[C@@H](Cc1c[nH]c2ccccc12)C(=O)N[C@H](CC(C)C)C(=O)N[C@@H](Cc1c[nH]c2ccccc12)C(=O)N[C@@H](C(=O)N[C@@H](Cc1c[nH]c2ccccc12)C(=O)NCCO)[C@H](C)O [compound 5172] (For-VGA[dV]A[dV]V[dV]W[dL]W[dL]W[dT]W-NHCH2CH2OH)	++	1.27	100.0
CC(C)C[C@@H](NC(=O)[C@H](C)NC(=O)CNC(=O)[C@@H](NC=O)C(C)C)C(=O)N[C@@H](C)C(=O)N[C@H](CC(C)C)C(=O)N[C@H](C(=O)N[C@H](CC(C)C)C(=O)N[C@@H](Cc1c[nH]c2ccccc12)C(=O)N[C@@H](C(=O)N[C@@H](Cc1c[nH]c2ccccc12)C(=O)N[C@@H](C(=O)N[C@@H](Cc1c[nH]c2ccccc12)C(=O)N[C@@H](C(=O)N[C@@H](Cc1c[nH]c2ccccc12)C(=O)NCCO)C(C)C)[C@H](C)O)C(C)C)C(C)C [compound 5178] (For-VGA[dL]A[dL]V[dL]W[dV]W[dT]W[dV]W-NHCH2CH2OH)	-	1.22	100.0
CNC(=O)C[C@@H](NC(=O)[C@@H](NC(=O)[C@H](NC(=O)[C@H](C)NC(=O)[C@@H](CC(C)C)NC(=O)[C@H](C)NC(=O)CNC(=O)[C@@H](NC=O)C(C)C)C(C)C)C(C)C)C(=O)N[C@@H](Cc1c[nH]c2ccccc12)C(=O)N[C@@H](C(=O)N[C@@H](Cc1c[nH]c2ccccc12)C(=O)N[C@H](CC(C)C)C(=O)N[C@@H](Cc1c[nH]c2ccccc12)C(=O)N[C@@H](C(=O)N[C@@H](Cc1c[nH]c2ccccc12)C(=O)NCCO)C(C)C)C(C)C [compound 5185] (For-VGA[dL]A[dV]V[dD](NHMe)W[dV]W[dL]W[dV]W-NHCH2CH2OH)	-	1.40	100.0
CC(C)[C@H](NC=O)C(=O)NCC(=O)N[C@@H](C)C(=O)N[C@@H](C(=O)N[C@@H](C)C(=O)N[C@@H](C(=O)N[C@H](C(=O)N[C@@H](C(=O)N[C@@H](Cc1c[nH]c2ccccc12)C(=O)N[C@@H](C(=O)N[C@@H](Cc1c[nH]c2ccccc12)C(=O)N[C@@H](C(=O)N[C@@H](Cc1c[nH]c2ccccc12)C(=O)N[C@@H](C(=O)N[C@@H](Cc1c[nH]c2ccccc12)C(=O)NCCO)C(C)C)C(C)C)[C@H](C)O)C(C)C)C(C)C)C(C)C)C(C)C [compound 5205] (For-VGA[dV]A[dV]V[dV]W[dT]W[dV]W[dV]W-NHCH2CH2OH)	-	1.22	100.0
CC(C)C[C@@H](NC(=O)[C@H](C)NC(=O)[C@H](NC(=O)[C@H](C)NC(=O)CNC(=O)[C@@H](NC=O)C(C)C)[C@H](C)O)C(=O)N[C@H](C(=O)N[C@H](CC(C)C)C(=O)N[C@@H](Cc1c[nH]c2ccccc12)C(=O)N[C@@H](C(=O)N[C@@H](Cc1c[nH]c2ccccc12)C(=O)N[C@H](CC(C)C)C(=O)N[C@@H](Cc1c[nH]c2ccccc12)C(=O)N[C@H](CC(C)C)C(=O)N[C@@H](Cc1c[nH]c2ccccc12)C(=O)NCCO)[C@H](C)O)C(C)C [compound 5215] (For-VGA[dT]A[dL]V[dL]W[dT]W[dL]W[dL]W-NHCH2CH2OH)	-	1.33	100.0
CC(C)C[C@@H](NC(=O)[C@H](C)NC(=O)[C@H](NC(=O)[C@H](C)NC(=O)CNC(=O)[C@@H](NC=O)C(C)C)C(C)C)C(=O)N[C@H](C(=O)N[C@@H](C(=O)N[C@@H](Cc1c[nH]c2ccccc12)C(=O)N[C@H](CC(C)C)C(=O)N[C@@H](Cc1c[nH]c2ccccc12)C(=O)N[C@@H](C(=O)N[C@@H](Cc1c[nH]c2ccccc12)C(=O)N[C@H](CC(C)C)C(=O)N[C@@H](Cc1c[nH]c2ccccc12)C(=O)NCCO)C(C)C)C(C)C)C(C)C [compound 5241] (For-VGA[dV]A[dL]V[dV]W[dL]W[dV]W[dL]W-NHCH2CH2OH)	++	1.39	12.2
CNC(=O)C[C@@H](NC(=O)[C@H](Cc1c[nH]c2ccccc12)NC(=O)[C@@H](CC(C)C)NC(=O)[C@H](Cc1c[nH]c2ccccc12)NC(=O)[C@H](NC(=O)[C@H](Cc1c[nH]c2ccccc12)NC(=O)[C@@H](CC(C)C)NC(=O)[C@@H](NC(=O)[C@H](NC(=O)[C@H](C)NC(=O)[C@@H](CC(C)C)NC(=O)[C@H](C)NC(=O)CNC(=O)[C@@H](NC=O)C(C)C)C(C)C)C(C)C)C(C)C)C(=O)N[C@@H](Cc1c[nH]c2ccccc12)C(=O)NCCO [compound 5302] (For-VGA[dL]A[dV]V[dL]W[dV]W[dL]W[dD](NHMe)W-NHCH2CH2OH)	-	1.37	100.0
CC(C)C[C@@H](NC(=O)[C@H](Cc1c[nH]c2ccccc12)NC(=O)[C@@H](CC(C)C)NC(=O)[C@@H](NC(=O)[C@H](NC(=O)[C@H](C)NC(=O)[C@H](NC(=O)[C@H](C)NC(=O)CNC(=O)[C@@H](NC=O)C(C)C)C(C)C)C(C)C)C(C)C)C(=O)N[C@@H](Cc1c[nH]c2ccccc12)C(=O)N[C@@H](C(=O)N[C@@H](Cc1c[nH]c2ccccc12)C(=O)N[C@@H](C(=O)N[C@@H](Cc1c[nH]c2ccccc12)C(=O)NCCO)C(C)C)[C@H](C)O [compound 5311] (For-VGA[dV]A[dV]V[dL]W[dL]W[dT]W[dV]W-NHCH2CH2OH)	+	1.15	100.0
CC(C)C[C@@H](NC(=O)[C@H](C)NC(=O)[C@H](NC(=O)[C@H](C)NC(=O)CNC(=O)[C@@H](NC=O)C(C)C)[C@H](C)O)C(=O)N[C@H](C(=O)N[C@H](CC(C)C)C(=O)N[C@@H](Cc1c[nH]c2ccccc12)C(=O)N[C@H](CC(C)C)C(=O)N[C@@H](Cc1c[nH]c2ccccc12)C(=O)N[C@@H](C(=O)N[C@@H](Cc1c[nH]c2ccccc12)C(=O)N[C@H](CC(C)C)C(=O)N[C@@H](Cc1c[nH]c2ccccc12)C(=O)NCCO)C(C)C)C(C)C [compound 5329] (For-VGA[dT]A[dL]V[dL]W[dL]W[dV]W[dL]W-NHCH2CH2OH)	-	1.26	100.0
